Laboratory results reported in the supplement of paper PMC7840683.
± gives the standard deviation of the averaged measurements.

Test system: HepaRG
Test: LDH release cytotoxicity, % of total lysis control; higher = more cytotoxic
Settings: 48 h
Outline: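 Duplicate wells of single-lot HepaRG cells, grown on collagen I-coated 96-well plates, received eight-point half-log series of test chemicals with 100 µM as the top concentration. Exposure lasted 48 h in serum-free induction medium with 0.5% DMSO, while total lysis wells received 0.1% Triton X. Resorufin fluorescence (CytoTox-ONE, Tecan Safire) was used to quantify LDH leaked into 50 µL of spent medium. Values for percent cytotoxicity were normalized to on-plate vehicle and total lysis controls and averaged across the duplicates.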

Structure (SMILES): CC(=O)OCC1OC(OC2(COC(C)=O)OC(COC(C)=O)C(OC(C)=O)C2OC(C)=O)C(OC(C)=O)C(OC(C)=O)C1OC(C)=O (configuration not stated) [Sucrose octaacetate]
- LDH release cytotoxicity (0.0238752 µM): -0.662 ± 1.5%
- LDH release cytotoxicity (0.0755 µM): -0.298 ± 1.5%
- LDH release cytotoxicity (0.238752 µM): -0.188 ± 0.8%
- LDH release cytotoxicity (0.755 µM): -1.45 ± 0.2%
- LDH release cytotoxicity (2.38752 µM): -0.463 ± 0.58%
- LDH release cytotoxicity (7.55 µM): -0.261 ± 0.3%
- LDH release cytotoxicity (23.8752 µM): -0.0769 ± 0.54%
- LDH release cytotoxicity (75.5 µM): 1.89 ± 0.36%

Structure (SMILES): ClC(Cl)c1ccccc1 [Benzal chloride]
- LDH release cytotoxicity (0.03162 µM): 0.273 ± 0.17%
- LDH release cytotoxicity (0.1 µM): -0.75 ± 0.78%
- LDH release cytotoxicity (0.3162278 µM): -0.461 ± 0.39%
- LDH release cytotoxicity (1 µM): -1.3 ± 1.2%
- LDH release cytotoxicity (3.16228 µM): -1.29 ± 0.9%
- LDH release cytotoxicity (10 µM): 0.533 ± 0.9%
- LDH release cytotoxicity (31.6228 µM): 1.06 ± 1.1%
- LDH release cytotoxicity (100 µM): 2.15 ± 0.29%

Structure (SMILES): CC(C)NC(=O)N1CC(=O)N(c2cc(Cl)cc(Cl)c2)C1=O [Iprodione]
- LDH release cytotoxicity (0.03162 µM): -0.45 ± 0.15%
- LDH release cytotoxicity (0.1 µM): -1.34 ± 0.23%
- LDH release cytotoxicity (0.3162278 µM): -0.949 ± 0.21%
- LDH release cytotoxicity (1 µM): -1.27 ± 0.32%
- LDH release cytotoxicity (3.16228 µM): -1.29 ± 0.11%
- LDH release cytotoxicity (10 µM): -0.662 ± 0.57%
- LDH release cytotoxicity (31.6228 µM): 1.78 ± 0.13%
- LDH release cytotoxicity (100 µM): 4.73 ± 0.47%

Structure (SMILES): O=C(O)C(F)(F)C(F)(F)C(F)(F)C(F)(F)C(F)(F)C(F)(F)C(F)(F)C(F)(F)F [Perfluorononanoic acid]
- LDH release cytotoxicity (0.03162 µM): -0.689 ± 0.78%
- LDH release cytotoxicity (0.1 µM): -1.58 ± 0.88%
- LDH release cytotoxicity (0.3162278 µM): -1.12 ± 0.43%
- LDH release cytotoxicity (1 µM): -2.4 ± 0.24%
- LDH release cytotoxicity (3.16228 µM): -1.4 ± 0.082%
- LDH release cytotoxicity (10 µM): -1.71 ± 0.11%
- LDH release cytotoxicity (31.6228 µM): -1.31 ± 0.22%
- LDH release cytotoxicity (100 µM): 27.5 ± 4.5%

Structure (SMILES): CCCN(CCC)c1c([N+](=O)[O-])cc(C(F)(F)F)cc1[N+](=O)[O-] [Trifluralin]
- LDH release cytotoxicity (0.03162 µM): -4.73 ± 0.13%
- LDH release cytotoxicity (0.1 µM): -5.31 ± 0.81%
- LDH release cytotoxicity (0.3162278 µM): -5.66 ± 0.27%
- LDH release cytotoxicity (1 µM): -6.43 ± 1.1%
- LDH release cytotoxicity (3.16228 µM): -5.85 ± 1.3%
- LDH release cytotoxicity (10 µM): -6.17 ± 0.86%
- LDH release cytotoxicity (31.6228 µM): -2.1 ± 0.44%
- LDH release cytotoxicity (100 µM): 66.3 ± 2.5%

Structure (SMILES): CC(=O)OCC=C(C)CCC=C(C)C [Geranyl acetate]
- LDH release cytotoxicity (0.031623 µM): -1.3 ± 1.1%
- LDH release cytotoxicity (0.1 µM): -3.48 ± 2.1%
- LDH release cytotoxicity (0.316228 µM): -4.47 ± 1.1%
- LDH release cytotoxicity (1 µM): -4.04 ± 0.45%
- LDH release cytotoxicity (3.16228 µM): -4.04 ± 0.095%
- LDH release cytotoxicity (10 µM): -3.42 ± 0.49%
- LDH release cytotoxicity (31.6228 µM): -1.98 ± 0.24%
- LDH release cytotoxicity (100 µM): -0.423 ± 0.54%

Structure (SMILES): CCNP(=S)(OC)OC(C)=CC(=O)OC(C)C (configuration not stated) [Propetamphos]
- LDH release cytotoxicity (0.03162 µM): 0.305 ± 0.75%
- LDH release cytotoxicity (0.1 µM): -0.308 ± 0.074%
- LDH release cytotoxicity (0.3162278 µM): -1.36 ± 0.17%
- LDH release cytotoxicity (1 µM): -0.42 ± 0.63%
- LDH release cytotoxicity (3.16228 µM): -0.261 ± 0.68%
- LDH release cytotoxicity (10 µM): 0.0856 ± 0.23%
- LDH release cytotoxicity (31.6228 µM): -1.69 ± 0.097%
- LDH release cytotoxicity (100 µM): 2.91 ± 0.14%

Structure (SMILES): O=[N+]([O-])C(Br)(CO)CO [Bronopol]
- LDH release cytotoxicity (0.031623 µM): -1.83 ± 0.79%
- LDH release cytotoxicity (0.1 µM): -3.38 ± 2.4%
- LDH release cytotoxicity (0.316228 µM): -2.69 ± 1.3%
- LDH release cytotoxicity (1 µM): -3.3 ± 0.87%
- LDH release cytotoxicity (3.16228 µM): -3.31 ± 0.59%
- LDH release cytotoxicity (10 µM): -2.52 ± 1.9%
- LDH release cytotoxicity (31.6228 µM): -0.61 ± 0.22%
- LDH release cytotoxicity (100 µM): 0.628 ± 0.21%

Structure (SMILES): CN(C)C(=O)Nc1ccc(Cl)c(Cl)c1 [Diuron]
- LDH release cytotoxicity (0.0314647 µM): -0.32 ± 1.2%
- LDH release cytotoxicity (0.0995 µM): -1.23 ± 1.5%
- LDH release cytotoxicity (0.3146466 µM): -1.57 ± 0.64%
- LDH release cytotoxicity (0.995 µM): -0.727 ± 0.72%
- LDH release cytotoxicity (3.14647 µM): -1.47 ± 0.9%
- LDH release cytotoxicity (9.95 µM): -1.77 ± 0.071%
- LDH release cytotoxicity (31.4647 µM): -0.974 ± 0.13%
- LDH release cytotoxicity (99.5 µM): 19 ± 4.1%

Structure (SMILES): O=C1C2(Cl)C3(Cl)C4(Cl)C(Cl)(Cl)C5(Cl)C3(Cl)C1(Cl)C5(Cl)C24Cl (configuration not stated) [Kepone]
- LDH release cytotoxicity (0.03162 µM): -0.309 ± 0.28%
- LDH release cytotoxicity (0.1 µM): 0.458 ± 0.64%
- LDH release cytotoxicity (0.3162278 µM): -0.526 ± 0.16%
- LDH release cytotoxicity (1 µM): -0.604 ± 0.8%
- LDH release cytotoxicity (3.16228 µM): -0.552 ± 0.22%
- LDH release cytotoxicity (10 µM): -0.815 ± 0.31%
- LDH release cytotoxicity (31.6228 µM): 8.06 ± 1.2%
- LDH release cytotoxicity (100 µM): 90.1 ± 3.4%

Structure (SMILES): CCN(CC)C(=S)SSC(=S)N(CC)CC [Tetraethylthiuram disulfide]
- LDH release cytotoxicity (0.0322552 µM): -1.43 ± 0.25%
- LDH release cytotoxicity (0.102 µM): -2.15 ± 0.58%
- LDH release cytotoxicity (0.322552 µM): -2.5 ± 0.25%
- LDH release cytotoxicity (1.02 µM): -2.4 ± 0.028%
- LDH release cytotoxicity (3.2255232 µM): -1.91 ± 0.23%
- LDH release cytotoxicity (10.2 µM): -1.62 ± 0.69%
- LDH release cytotoxicity (32.2552 µM): -0.659 ± 0.28%
- LDH release cytotoxicity (102 µM): 3.01 ± 0.7%

Structure (SMILES): ClC(Cl)(Cl)c1ccccc1 [Benzotrichloride]
- LDH release cytotoxicity (0.03162 µM): -0.669 ± 1.1%
- LDH release cytotoxicity (0.1 µM): -1.85 ± 0.77%
- LDH release cytotoxicity (0.3162278 µM): -1.72 ± 0.38%
- LDH release cytotoxicity (1 µM): -1.748 ± 0.0065%
- LDH release cytotoxicity (3.16228 µM): -1.92 ± 0.31%
- LDH release cytotoxicity (10 µM): -2.01 ± 0.6%
- LDH release cytotoxicity (31.6228 µM): -1.18 ± 0.47%
- LDH release cytotoxicity (100 µM): -0.246 ± 0.61%

Structure (SMILES): CCOC(=O)COc1ccc2c(c1)CC(NCC(O)c1cccc(Cl)c1)CC2 (configuration not stated)
- LDH release cytotoxicity (0.02893 µM): -1.56 ± 0.66%
- LDH release cytotoxicity (0.0915 µM): 0.00613 ± 0.73%
- LDH release cytotoxicity (0.289348 µM): -0.98 ± 0.2%
- LDH release cytotoxicity (0.915 µM): -1.71 ± 0.69%
- LDH release cytotoxicity (2.89348 µM): -1.72 ± 0.32%
- LDH release cytotoxicity (9.15 µM): -1.13 ± 0.47%
- LDH release cytotoxicity (28.9348 µM): 1.91 ± 1.4%
- LDH release cytotoxicity (91.5 µM): 10.4 ± 2.2%

Structure (SMILES): CC(=O)Oc1ccccc1C(=O)O [Aspirin]
- LDH release cytotoxicity (0.03162 µM): -1.2 ± 0.093%
- LDH release cytotoxicity (0.1 µM): -0.322 ± 0.2%
- LDH release cytotoxicity (0.3162278 µM): 0.562 ± 0.26%
- LDH release cytotoxicity (1 µM): -0.207 ± 0.53%
- LDH release cytotoxicity (3.16228 µM): -0.296 ± 0.42%
- LDH release cytotoxicity (10 µM): -0.207 ± 0.33%
- LDH release cytotoxicity (31.6228 µM): 0.489 ± 0.23%
- LDH release cytotoxicity (100 µM): 2.14 ± 0.33%

Structure (SMILES): CCCCCCCCCCCCCN1CC(C)OC(C)C1 (configuration not stated) [Tridemorph]
- LDH release cytotoxicity (0.0322552 µM): -2.04 ± 1.1%
- LDH release cytotoxicity (0.102 µM): -2.33 ± 0.85%
- LDH release cytotoxicity (0.322552 µM): -1.56 ± 0.26%
- LDH release cytotoxicity (1.02 µM): -2.46 ± 1%
- LDH release cytotoxicity (3.2255232 µM): -1.14 ± 0.89%
- LDH release cytotoxicity (10.2 µM): -0.844 ± 0.88%
- LDH release cytotoxicity (32.2552 µM): -0.534 ± 0.43%
- LDH release cytotoxicity (102 µM): 71.8 ± 7.5%

Structure (SMILES): CC(CO)OC(C)CO.CC(O)COCC(C)O (configuration not stated) [Dipropylene glycol]
- LDH release cytotoxicity (0.03162 µM): -0.933 ± 0.81%
- LDH release cytotoxicity (0.1 µM): -1.33 ± 0.44%
- LDH release cytotoxicity (0.3162278 µM): -1.72 ± 1.1%
- LDH release cytotoxicity (1 µM): -2.46 ± 0.3%
- LDH release cytotoxicity (3.16228 µM): -1.81 ± 0.92%
- LDH release cytotoxicity (10 µM): -1.07 ± 0.57%
- LDH release cytotoxicity (31.6228 µM): -0.766 ± 1.3%
- LDH release cytotoxicity (100 µM): 1.27 ± 1.3%

Structure (SMILES): O=C(NC(=O)c1c(F)cccc1F)Nc1ccc(OC(F)(F)C(F)OC(F)(F)F)c(Cl)c1 (configuration not stated) [Novaluron]
- LDH release cytotoxicity (0.031623 µM): -0.704 ± 1.1%
- LDH release cytotoxicity (0.1 µM): -3.48 ± 0.26%
- LDH release cytotoxicity (0.316228 µM): -3.95 ± 0.86%
- LDH release cytotoxicity (1 µM): -4.4 ± 1.3%
- LDH release cytotoxicity (3.16228 µM): -3.9 ± 0.22%
- LDH release cytotoxicity (10 µM): -4.16 ± 0.54%
- LDH release cytotoxicity (31.6228 µM): -1.88 ± 0.94%
- LDH release cytotoxicity (100 µM): 4.68 ± 1.6%

Structure (SMILES): CCCCCCCCCc1ccc(O)cc1 [4-Nonylphenol]
- LDH release cytotoxicity (0.03162 µM): -1.27 ± 0.19%
- LDH release cytotoxicity (0.1 µM): -0.659 ± 0.11%
- LDH release cytotoxicity (0.3162278 µM): -1.49 ± 0.82%
- LDH release cytotoxicity (1 µM): -1.65 ± 0.14%
- LDH release cytotoxicity (3.16228 µM): -0.715 ± 0.039%
- LDH release cytotoxicity (10 µM): 0.445 ± 1.6%
- LDH release cytotoxicity (31.6228 µM): -0.17 ± 0.57%
- LDH release cytotoxicity (100 µM): 1.51 ± 1.1%

Structure (SMILES): O=c1ccc(=O)[nH][nH]1 [Maleic hydrazide]
- LDH release cytotoxicity (0.03162 µM): -0.979 ± 0.52%
- LDH release cytotoxicity (0.1 µM): -0.493 ± 0.19%
- LDH release cytotoxicity (0.3162278 µM): -1.74 ± 0.22%
- LDH release cytotoxicity (1 µM): -0.384 ± 0.92%
- LDH release cytotoxicity (3.16228 µM): -1.91 ± 0.55%
- LDH release cytotoxicity (10 µM): -1.15 ± 0.52%
- LDH release cytotoxicity (31.6228 µM): 0.124 ± 0.07%
- LDH release cytotoxicity (100 µM): 2.69 ± 1.4%
